Source: patent US9714229B2, “Crystal of tetracyclic compound” (Chugai Seiyaku Kabushiki Kaisha, priority 2014, dated 2017)

Key:
[1] = Investigation on transformation of crystal form of type II crystal due to humidity (powder X-ray diffraction); assay type: physicochemical
Description: For the type I, type II, and type III crystals of a monohydrochloride of 9-ethyl-6,6-dimethyl-8-(4-morpholin-4-yl-piperidin-1-yl)-11-oxo-6,11-dihydro-5H-benzo[b]carbazole-3-carbonitrile, the powder X-ray diffraction was measured under the following conditions. The measurement results for the type II crystal, the type III crystal, and the type I crystal are shown in FIGS. 1, 2, and 3. • Measuring apparatus: X'Pert-Pro MPD (manufactured by PANalytical HV) • Anticathode: Cu • Tube voltage: 45 kV • Tube current: 40 mA • Step width: 0.02 • Scan axis: 20 • Sampling time per: 43 seconds • Scan range: 3 to 40°
In order to investigate the transformation of the crystal form of the type II crystal of the monohydrochloride of 9-ethyl-6,6-dimethyl-8-(4-morpholin-4-yl-piperidin-1-yl)-11-oxo-6,11-dihydro-5H-benzo[b]carbazole-3-carbonitrile due to humidity, samples were placed in the following humidity conditions, and changes in crystal form were investigated using the powder X-ray diffraction.
Test Conditions 1 (Investigation on Transformation of Crystal form of Type II Crystal at Low Humidity)
• Amount of sample: About 17 mq • Temperature: Constant temperature of about 25° C. • Atmospheric gas: Dry nitrogen • Flow rate of atmospheric gas: 200 sccm (ml/min) • Mass change rate: 0.002 dm/dt • Relative humidity: Samples were placed at a relative humidity of 0% RH • Minimum waiting time: 10 min • Maximum waiting time: 1200 min. Test Conditions 2 (Iinvestigation on Transformation of Crystal Form of Type II Crystal at High Humidity) • Amount of sample: About 16 mg • Temperature: Constant temperature of about 25° C. • Atmospheric s: Dry nitrogen • Flow rate of atmospheric gas: 200 sccm (ml/min) • Mass change rate: 0.002 dm/dt (%/min) • Relative humidity: Samples were placed at a relative humidity of 70% RH • Minimum waiting time: 10 min • Maximum waiting time: 1200 min

[2] = Measurement of vapor sorption isotherm of type II crystal (DVS-1); assay type: physicochemical; conditions: for weight change rate (%): about 25° C.
Description: For the type II crystal of the monohydrochloride of 9-ethyl-6,6-dimethyl-8-(4-morpholin-4-yl-piperidin-1-yl)-11-oxo-6,11-dihydro-5H-benzo[b]carbazole-3-carbonitrile (about 5 mg), the vapor sorption isotherm was measured using a dynamic vapor sorption isotherm instrument: DVS-1 (Surface Measurement Systems) under the following conditions.
• Temperature: Constant temperature of about 25° C. • Atmospheric gas: Dry nitrogen • Flow rate of atmospheric gas: 200 sccm (ml/min) • Minimum waiting time: 10 min • Maximum waiting time: 1200 min • Mass change rate: 0.002 dm/dt (% min), where the mass change rate was 0.001 dm/dt (% min) at 5, 10, 15, 55, 60, and 65% RH.
Relative humidity: Relative humidity was varied to 0, 5, 10, 15, 20, 30, 40, 50, 55, 60, 65, 70, 80, 90, 80, 70, 65, 60, 55, 50, 40, 30, 20, 15, 10, 5, and 0% RR in this order. Such variation was regarded as one cycle, and three cycles were carried out. The weight change rate (%) of the type II crystal, when the temperature environment was varied from a relative humidity of 0% RH to 90% RH at about 25° C., was 3.7% in the range of a relative humidity from 0% RH to 15% RH, 0.05% in the range of a relative humidity from 15% RH to 55% RH, 11% in the range of a relative humidity from 55% RH to 65% RH, and 0.04% in the range of a relative humidity from 65% RH to 90% RH.

In the case of CCc1cc2c(cc1N1CCC(N3CCOCC3)CC1)C(C)(C)c1[nH]c3cc(C#N)ccc3c1C2=O [type II crystal, 9-ethyl-6,6-dimethyl-8-(4-morpholin-4-yl-piperidin-1-yl)-11-oxo-6,11-dihydro-5H-benzo[b]carbazole-3-carbonitrile], the “time after which crystal form had returned to the original form when allowed to stand in the air” value ([1]; after storage at 70% RH, powder X-ray diffraction measured over time) is reported as 4 h, the “time to return to the original crystal form when allowed to stand in the air” value ([1]; after storage at low humidity (0% RH)) is reported as “within one hour” and the “relative humidity at which the crystal absorbs moisture and transforms into another crystal form containing water of crystallization (high humidity environment)” value ([1]; inferred from the XRPD results) is reported as no less than 65 RH. The “relative humidity at which the crystal dehydrates to an anhydrate (low humidity environment)” value ([1]; inferred from the XRPD results) was no more than 15 % RH, the “change in crystal form on storage at low humidity” value ([1]; relative humidity 0% RH, about 25° C., dry nitrogen, powder X-ray diffraction (FIG. 4)) was “transformation into another crystal form was caused” and the “change in crystal form on storage at high humidity” value ([1]; relative humidity 70% RH, about 25° C., powder X-ray diffraction (FIG. 5)) was “transformation into another crystal form was caused”. The “form inferred from molecular weight and mass change rate in high humidity environment” value ([2]; humidity of 65% RH or more) was “transformed into a monohydrochloride tetrahydrate”, the “weight change rate (%)” value ([2]; relative humidity from 0% RH to 15% RH) was 3.7% and the “weight change rate (%)” value ([2]; relative humidity from 15% RH to 55% RH) was 0.05%. For the same molecule, the “weight change rate (%)” value ([2]; relative humidity from 55% RH to 65% RH) was 11%, the “weight change rate (%)” value ([2]; relative humidity from 65% RH to 90% RH) was 0.04% and the “form inferred from molecular weight and mass change rate on storage at low humidity” value ([2]; stored in an atmosphere of 0% RH) was “transformed into a monohydrochloride”.
